The results in this text go back to patent publication US20260070945A1, “MACROCYCLIC IMMUNOMODULATORS” (Bristol-Myers Squibb Company, priority 2022, published 2026).

The structures appear in SMILES notation. pIC50: −log10 of the molar value. *1 amine or outer side, *2 acyl side, *3 side chain or, on linkers, in order; H or OH if unused. Where a SMILES comes first, the peptide text is derived from it. Bridges are numbered along the chain shown (N, C = ends). [ ]: non-standard residue; d: D form. The star is where a group is joined. ξ: configuration not given here. X10 = O=C(O)COc1ccc(C[C@H](CC(=O)C[*:2])C(=O)[*:1])cc1; Phe(3-CF3) = N[C@@H](Cc1cccc(C(F)(F)F)c1)C(=O)O; Phe(4-COOH) = N[C@@H](Cc1ccc(C(=O)O)cc1)C(=O)O; d(γGlu) = O=C(O)[C@@H](CCC(=O)[*:2])N[*:1]; Bip = N[C@@H](Cc1ccc(-c2ccccc2)cc1)C(=O)O; NH(CH2)14COOH = O=C(O)CCCCCCCCCCCCCCN*; Phe(3-Me) = Cc1cccc(C[C@H](N)C(=O)O)c1; γGlu = O=C(O)[C@H](CCC(=O)[*:2])N[*:1]; NH(CH2)12COOH = O=C(O)CCCCCCCCCCCCN*; Val(3-OH) = CC(C)(O)[C@H](N)C(=O)O; NHhexadecyl = CCCCCCCCCCCCCCCCN*; Cha = N[C@@H](CC1CCCCC1)C(=O)O; Thr(3ξ) = CC(O)[C@H](N)C(=O)O; dDab = NCC[C@@H](N)C(=O)O; Carboxymethyl = O=C(O)C*; NMeA = CN[C@@H](C)C(=O)O; Nle = CCCC[C@H](N)C(=O)O; Dab = NCC[C@H](N)C(=O)O; AEEA = NCCOCCOCC(=O)O; ξC = NC(CS)C(=O)O

T1 sequence (Q15116 25-288): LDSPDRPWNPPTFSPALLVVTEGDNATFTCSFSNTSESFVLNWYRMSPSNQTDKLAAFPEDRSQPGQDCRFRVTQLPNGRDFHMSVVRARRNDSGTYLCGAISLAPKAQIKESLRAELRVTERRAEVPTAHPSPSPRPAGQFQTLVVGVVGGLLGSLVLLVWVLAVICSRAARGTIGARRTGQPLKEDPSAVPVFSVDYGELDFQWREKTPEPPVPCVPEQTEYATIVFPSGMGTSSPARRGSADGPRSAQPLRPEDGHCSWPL

This experiment concerns the target T1, PD-1/PD-L1 interaction (PE-labeled human PD-L1-Ig binding to Jurkat cell line over-expressing human PD-1) (Homo sapiens, UniProt Q15116).
T1 construct: expressed in transfected cells; host or cells: Jurkat
The experiment in a line: Jurkat-PD-1 Cell Binding High-Content Screening Assay (CBA). The settings on record: PE-labeled PD-L1-Ig 20 nM final, Jurkat-hPD-1 cells; read-out: Jurkat HPD1 PDL1 IC50. The method in brief:
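Binding of 20 nM (final) PE-tagged PD-L1-Ig to compound-pretreated Jurkat-hPD-1 cells was measured by high-content imaging after 1 h. Pretreatment ran 2 h at 37 °C in DMEM with 10% fetal calf serum.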
With `CCCCCCCCCCCCCCCCNC(=O)CC[C@H](NC(=O)COCCOCCNC(=O)[C@H](CCN)NC(=O)[C@@H]1CSCC(=O)C[C@@H](Cc2ccc(OCC(=O)O)cc2)C(=O)N[C@@H](Cc2ccc(OCC(=O)O)cc2)C(=O)N[C@@H](CC(=O)O)C(=O)N[C@@H](Cc2cccc(C(F)(F)F)c2)C(=O)N[C@@H](Cc2ccc(C(=O)O)cc2)C(=O)N[C@@H](Cc2ccc(-c3ccccc3)cc2)C(=O)N[C@@H](CCC(N)=O)C(=O)N(C)[C@@H](C)C(=O)N[C@H](CC(C)C)C(=O)N[C@@H](CCN)C(=O)N[C@@H](CC2CCCCC2)C(=O)N[C@@H](C(C)(C)O)C(=O)N[C@@H](CCCCNC(C)=O)C(=O)N1)C(=O)O` [Example 2641] (Y(Carboxymethyl)D[Phe(3-CF3)][Phe(4-COOH)][Bip]Q[NMeA][dL][Dab][Cha][Val(3-OH)]K(Ac)C[Dab][AEEA]E(NHhexadecyl)-OH; linker N-13 via X10), the pIC50 (in general, −log10 of the IC50, conventionally taken in molar units) is 7.41.

On to `Cc1cccc(C[C@@H]2NC(=O)[C@H](CC(=O)O)NC(=O)[C@H](Cc3ccc(OCC(=O)O)cc3)NC(=O)[C@H](C)NC(=O)CSC[C@@H](C(=O)N[C@@H](CCN)C(=O)NCCCCCCCCCCCCC(=O)O)NC(=O)[C@H](Cc3cnc[nH]3)NC(=O)[C@H](C(C)(C)O)NC(=O)[C@H](CC3CCCCC3)NC(=O)[C@H](CCN)NC(=O)[C@@H](CC(C)C)NC(=O)[C@H](C)N(C)C(=O)[C@H](CCCNC(=N)N)NC(=O)[C@H](Cc3ccc(-c4ccccc4)cc3)NC(=O)[C@H](Cc3ccc(O)cc3)NC2=O)c1` [Example 2642] ({CH2CO}-AY(Carboxymethyl)D[Phe(3-Me)]Y[Bip]R[NMeA][dL][Dab][Cha][Val(3-OH)]HC[Dab]-{NH(CH2)12COOH}; thioether N-14), for which the pIC50 is 7.13.

In the case of `Cc1cccc(C[C@@H]2NC(=O)[C@H](CC(=O)O)NC(=O)[C@H](Cc3ccc(C(=O)O)cc3)NC(=O)[C@H](C(C)O)NC(=O)CSCC(C(=O)N[C@@H](CCN)C(=O)NCCCCCCCCCCCCC(=O)O)NC(=O)[C@H](CO)NC(=O)[C@H](C(C)(C)O)NC(=O)[C@H](CC3CCCCC3)NC(=O)[C@H](CCN)NC(=O)[C@@H](CC(C)C)NC(=O)[C@H](C)N(C)C(=O)[C@H](CCCNC(=N)N)NC(=O)[C@H](Cc3ccc(-c4ccccc4)cc3)NC(=O)[C@H](Cc3ccc(O)cc3)NC2=O)c1` (stereo partly drawn) [Example 2643] ({CH2CO}-[Thr(3ξ)][Phe(4-COOH)]D[Phe(3-Me)]Y[Bip]R[NMeA][dL][Dab][Cha][Val(3-OH)]S[ξC][Dab]-{NH(CH2)12COOH}; thioether N-14), the pIC50 is 7.40.

Consider `Cc1cccc(C[C@@H]2NC(=O)[C@H](CC(=O)O)NC(=O)[C@H](Cc3ccc(C(=O)O)cc3)NC(=O)[C@H](C(C)O)NC(=O)CSC[C@@H](C(=O)N[C@@H](CCN)C(=O)NCCCCCCCCCCCCC(=O)O)NC(=O)[C@H](CO)NC(=O)[C@H](C(C)(C)O)NC(=O)[C@H](CC3CCCCC3)NC(=O)[C@H](CCN)NC(=O)[C@@H](CC(C)C)NC(=O)[C@H](C)N(C)C(=O)[C@H](CCCNC(=N)N)NC(=O)[C@H](Cc3ccc(-c4ccccc4)cc3)NC(=O)[C@H](Cc3ccc(C(=O)O)cc3)NC2=O)c1` (stereo partly drawn) [Example 2644] ({CH2CO}-[Thr(3ξ)][Phe(4-COOH)]D[Phe(3-Me)][Phe(4-COOH)][Bip]R[NMeA][dL][Dab][Cha][Val(3-OH)]SC[Dab]-{NH(CH2)12COOH}; thioether N-14), for which the pIC50 was 7.78.

On to `CC(C)C[C@H]1NC(=O)[C@H](C)N(C)C(=O)[C@H](CCCNC(=N)N)NC(=O)[C@H](Cc2ccc(-c3ccccc3)cc2)NC(=O)[C@H](Cc2ccc(C(=O)O)cc2)NC(=O)[C@H](Cc2cccc(C(F)(F)F)c2)NC(=O)[C@H](CC(=O)O)NC(=O)[C@H](Cc2ccc(OCC(=O)O)cc2)NC(=O)[C@H](C(C)O)NC(=O)CSC[C@@H](C(=O)N[C@H](CC(N)=O)C(=O)NCCCCCCCCCCCCC(=O)O)NC(=O)[C@H](CO)NC(=O)[C@H](C(C)(C)O)NC(=O)[C@H](CC2CCCCC2)NC(=O)[C@H](CCN)NC1=O` (stereo partly drawn) [Example 2645] ({CH2CO}-[Thr(3ξ)]Y(Carboxymethyl)D[Phe(3-CF3)][Phe(4-COOH)][Bip]R[NMeA][dL][Dab][Cha][Val(3-OH)]SC[dN]-{NH(CH2)12COOH}; thioether N-14), for which the pIC50 is 6.94.

As to `CC(=O)NCCCC[C@@H]1NC(=O)[C@H](C(C)(C)O)NC(=O)[C@H](CC2CCCCC2)NC(=O)[C@H](CCN)NC(=O)[C@@H](CC(C)C)NC(=O)[C@H](C)N(C)C(=O)[C@H](CCC(N)=O)NC(=O)[C@H](Cc2ccc(-c3ccccc3)cc2)NC(=O)[C@H](Cc2ccc(C(=O)O)cc2)NC(=O)[C@H](Cc2cccc(C(F)(F)F)c2)NC(=O)[C@H](CC(=O)O)NC(=O)[C@H](Cc2ccc(OCC(=O)O)cc2)NC(=O)[C@H](Cc2ccc(OCC(=O)O)cc2)NC(=O)CSC[C@@H](C(=O)N[C@H](CCN)C(=O)NCCOCCOCC(=O)N[C@@H](CO)C(=O)NCCOCCOCC(=O)N[C@@H](CCC(=O)NCCCCCCCCCCCCCCC(=O)O)C(=O)O)NC1=O` [Example 2650] ({CH2CO}-Y(Carboxymethyl)Y(Carboxymethyl)D[Phe(3-CF3)][Phe(4-COOH)][Bip]Q[NMeA][dL][Dab][Cha][Val(3-OH)]K(Ac)C[dDab][AEEA]S[AEEA]E(NH(CH2)14COOH)-OH; thioether N-14), the pIC50 is 6.79.

On to `CC(=O)NCCCC[C@@H]1NC(=O)[C@H](C(C)(C)O)NC(=O)[C@H](CC2CCCCC2)NC(=O)[C@H](CCN)NC(=O)[C@@H](CC(C)C)NC(=O)[C@H](C)N(C)C(=O)[C@H](CCC(N)=O)NC(=O)[C@H](Cc2ccc(-c3ccccc3)cc2)NC(=O)[C@H](Cc2ccc(C(=O)O)cc2)NC(=O)[C@H](Cc2cccc(C(F)(F)F)c2)NC(=O)[C@H](CC(=O)O)NC(=O)[C@H](Cc2ccc(OCC(=O)O)cc2)NC(=O)[C@H](Cc2ccc(OCC(=O)O)cc2)NC(=O)CSC[C@@H](C(=O)N[C@@H](CCN)C(=O)NCCOCCOCC(=O)N[C@@H](CCC(=O)NCCOCCOCC(=O)NCCCCCCCCCCCCCCC(=O)O)C(=O)O)NC1=O` [Example 2652] ({CH2CO}-Y(Carboxymethyl)Y(Carboxymethyl)D[Phe(3-CF3)][Phe(4-COOH)][Bip]Q[NMeA][dL][Dab][Cha][Val(3-OH)]K(Ac)C[Dab][AEEA][γGlu][AEEA]-{NH(CH2)14COOH}; thioether N-14), for which the pIC50 is 7.33.

On to `CC(=O)NCCCC[C@@H]1NC(=O)[C@H](C(C)(C)O)NC(=O)[C@H](CC2CCCCC2)NC(=O)[C@H](CCN)NC(=O)[C@@H](CC(C)C)NC(=O)[C@H](C)N(C)C(=O)[C@H](CCC(N)=O)NC(=O)[C@H](Cc2ccc(-c3ccccc3)cc2)NC(=O)[C@H](Cc2ccc(C(=O)O)cc2)NC(=O)[C@H](Cc2cccc(C(F)(F)F)c2)NC(=O)[C@H](CC(=O)O)NC(=O)[C@H](Cc2ccc(OCC(=O)O)cc2)NC(=O)[C@H](Cc2ccc(OCC(=O)O)cc2)NC(=O)CSC[C@@H](C(=O)N[C@@H](CCN)C(=O)NCCOCCOCC(=O)N[C@H](CCC(=O)N[C@H](CCC(=O)NCCOCCOCC(=O)NCCCCCCCCCCCCCCC(=O)O)C(=O)O)C(=O)O)NC1=O` [Example 2655] ({CH2CO}-Y(Carboxymethyl)Y(Carboxymethyl)D[Phe(3-CF3)][Phe(4-COOH)][Bip]Q[NMeA][dL][Dab][Cha][Val(3-OH)]K(Ac)C[Dab][AEEA][d(γGlu)][d(γGlu)][AEEA]-{NH(CH2)14COOH}; thioether N-14), for which the pIC50 is 6.23.

For the compound `Cc1cccc(C[C@@H]2NC(=O)[C@H](CC(=O)O)NC(=O)[C@H](Cc3ccc(OCC(=O)O)cc3)NC(=O)[C@H](C(C)O)NC(=O)CSC[C@@H](C(=O)N[C@@H](CCN)C(=O)NCCOCCOCC(=O)N[C@@H](CCC(=O)NCCOCCOCC(=O)NCCCCCCCCCCCCC(=O)O)C(=O)O)NC(=O)[C@H](CCC(=O)O)NC(=O)[C@H](C(C)C)NC(=O)[C@H](CC3CCCCC3)NC(=O)[C@H](CCN)NC(=O)[C@@H](CC(C)C)NC(=O)[C@H](C)N(C)C(=O)[C@H](Cc3ccc(OCC(=O)O)cc3)NC(=O)[C@H](Cc3ccc(-c4ccccc4)cc3)NC(=O)[C@H](Cc3ccc(OCC(=O)O)cc3)NC2=O)c1` (stereo partly drawn) [Example 2656] ({CH2CO}-[Thr(3ξ)]Y(Carboxymethyl)D[Phe(3-Me)]Y(Carboxymethyl)[Bip]Y(Carboxymethyl)[NMeA][dL][Dab][Cha]VEC[Dab][AEEA][γGlu][AEEA]-{NH(CH2)12COOH}; thioether N-14), the pIC50 is 7.07.

For `CCCC[C@@H]1NC(=O)CSC[C@@H](C(=O)N[C@@H](CCN)C(=O)NCCOCCOCC(=O)N[C@@H](CCC(=O)NCCOCCOCC(=O)NCCCCCCCCCCCCC(=O)O)C(=O)O)NC(=O)[C@H](CCC(=O)O)NC(=O)[C@H](C(C)C)NC(=O)[C@H](CC2CCCCC2)NC(=O)[C@H](CCN)NC(=O)[C@@H](CC(C)C)NC(=O)[C@H](C)N(C)C(=O)[C@H](Cc2ccc(OCC(=O)O)cc2)NC(=O)[C@H](Cc2ccc(-c3ccccc3)cc2)NC(=O)[C@H](Cc2ccc(OCC(=O)O)cc2)NC(=O)[C@H](Cc2cccc(C)c2)NC(=O)[C@H](CC(=O)O)NC(=O)[C@H](Cc2ccc(OCC(=O)O)cc2)NC1=O` [Example 2657] ({CH2CO}-[Nle]Y(Carboxymethyl)D[Phe(3-Me)]Y(Carboxymethyl)[Bip]Y(Carboxymethyl)[NMeA][dL][Dab][Cha]VEC[Dab][AEEA][γGlu][AEEA]-{NH(CH2)12COOH}; thioether N-14), the pIC50 is 7.05.

Consider `CC(=O)NCCCC[C@@H]1NC(=O)[C@H](C(C)(C)O)NC(=O)[C@H](CC2CCCCC2)NC(=O)[C@H](CCN)NC(=O)[C@@H](CC(C)C)NC(=O)[C@H](C)N(C)C(=O)[C@H](Cc2ccc(OCC(=O)O)cc2)NC(=O)[C@H](Cc2ccc(-c3ccccc3)cc2)NC(=O)[C@H](Cc2ccc(OCC(=O)O)cc2)NC(=O)[C@H](Cc2cccc(C)c2)NC(=O)[C@H](CC(=O)O)NC(=O)[C@H](Cc2ccc(OCC(=O)O)cc2)NC(=O)[C@H](C(C)O)NC(=O)CSC[C@@H](C(=O)N[C@@H](CCN)C(=O)NCCOCCOCC(=O)N[C@@H](CCC(=O)NCCCCCCCCCCCCC(=O)O)C(=O)O)NC1=O` (stereo partly drawn) [Example 2658] ({CH2CO}-[Thr(3ξ)]Y(Carboxymethyl)D[Phe(3-Me)]Y(Carboxymethyl)[Bip]Y(Carboxymethyl)[NMeA][dL][Dab][Cha][Val(3-OH)]K(Ac)C[Dab][AEEA]E(NH(CH2)12COOH)-OH; thioether N-14), for which the pIC50 was 7.63.
